Results on 99 compounds are retold here after ChEMBL document CHEMBL3507680, “University of Dundee, Gates Library screen for HepG2 cell viability”.

The nature of the data set: Human HepG2 cell viability assay in 384 well format. Also on record: dose 125 nL, time 70.5 hour; cytotoxicity at 70.5 h: concentration not given beside the values. The data set is classed as toxicity, cell-based. Conditions: HepG2 cells, read-out: Inhibition.

Take `Cc1cccc(C2N3CCC4(CC3)c3[nH]c5ccccc5c3CCN24)n1` (centres undefined): the cytotoxicity at 70.5 h is 5.13%. For `Fc1ccc2[nH]c3c(c2c1)CCN1C(c2ccncc2)N2CCC31CC2` (centres undefined), the cytotoxicity at 70.5 h is 22.4%. With `CC1CCc2nn(CCNC(=O)Cc3ccccc3F)c(=O)cc2C1` (centres undefined), the cytotoxicity at 70.5 h was 0.912%.

As to `CC1CCc2nn(CCNC(=O)Cc3ccc(F)cc3)c(=O)cc2C1` (centres undefined), the cytotoxicity at 70.5 h was -4.91%. The value for `Cn1ccnc1CN1CCCC(CCCc2ccccn2)(C(N)=O)C1` (centres undefined) was -4.1%; that for `Fc1ccccc1Oc1nccnc1C1CCN(C2CCOCC2)CC1` was 30.2%. For `CC(C)CC(=O)NC[C@H]1CC[C@H](C(c2ccccn2)N(C)C)CC1` (some centres undefined), the cytotoxicity at 70.5 h is -3.76%. Consider `CN(C)C(c1ccccn1)[C@H]1CC[C@H](CNC(=O)C2CCCC2)CC1` (some centres undefined), for which the cytotoxicity at 70.5 h was -2.3%. With `Cc1c(C(=O)N(C)CC(F)(F)F)nnn1-c1ccc(F)cc1` the figure was 0.0353%; with `Cc1cnc2[nH]c(C(F)(F)F)c(CN3CCOCC3)c2c1`, 21.8%; with `CCn1cc(C(=O)NCCc2nc(-c3ccc(C)cc3)n[nH]2)c(C)n1`, -4.26%. The value for `CCn1ncc(C(=O)NCCc2nc(-c3ccc(C)cc3)n[nH]2)c1C` was -0.645%. For the compound `Cc1nc(C)n(CCNC(=O)C2(C)CC(c3ccccc3)=NO2)n1` (centres undefined), the cytotoxicity at 70.5 h came out at 1.37%. `Cn1ccc(C2CCCCCN2C(=O)c2cccnc2)n1` (centres undefined): the cytotoxicity at 70.5 h is -2.46%. The value for `Cc1ccc2nc(C)cc(NCCNS(=O)(=O)c3cccnc3)c2c1` was -2.02%; that for `COc1cc2c(cc1CN1CCc3sccc3C1C)OCCO2` (centres undefined) was 2.33%; that for `CC(C)CC(=O)N1C[C@H]2CCCN(S(=O)(=O)c3ccc(Cl)s3)[C@H]2C1` was 14.6%.

For `CNc1cccc(C2CN(C(=O)c3c[nH]cn3)CCO2)n1` (centres undefined), the cytotoxicity at 70.5 h worked out at 5.85%. Take `Cc1noc(C)c1CCC(=O)NCC1(O)CCCN(c2ccccn2)C1` (centres undefined): the cytotoxicity at 70.5 h is -5.72%.

As to `CC(=O)N1CCC(c2cncc(N3CCCC(O)C3)n2)CC1` (centres undefined), the cytotoxicity at 70.5 h is -4.12%. For the compound `Cc1nccnc1C1CCN(C2CCCC2O)CC1` (centres undefined), the cytotoxicity at 70.5 h is -0.726%. In the case of `c1cc2cc[nH]c2c(CC2CN(Cc3cncs3)C2)n1`, the cytotoxicity at 70.5 h was 7.7%. For `CN(C)S(=O)(=O)N1CC(c2nc(N)ncc2-c2ccc(F)cc2)C1`, the cytotoxicity at 70.5 h was -0.38%.

On to `CNc1cc(C2CN(C(=O)c3cnn(C)c3)CCO2)nc(C)n1` (centres undefined), for which the cytotoxicity at 70.5 h was 13.9%. `CNc1ncc(C(=O)N2CCOC(C(=O)Nc3ccccc3)C2)cn1` (centres undefined): the cytotoxicity at 70.5 h is -2.73%.

Take `CN1CCCC1c1cncc(C(=O)NCc2ccccc2)n1` (centres undefined): the cytotoxicity at 70.5 h was -2.59%. Regarding `O=C(Cc1cccnc1)N1CC(Cc2nccc3cc[nH]c23)C1`, the cytotoxicity at 70.5 h is 6.89%. Take `Cc1c(CCC(=O)N2CCOC(c3cnccn3)C2)cnn1C` (centres undefined): the cytotoxicity at 70.5 h was -2.28%. As for `Cc1cc2nccc(C3CCN(C(=O)c4ccccc4F)CC3)n2n1`, the cytotoxicity at 70.5 h is -4.04%.

In the case of `Cc1cc(C)nc(N2CCCC2c2[nH]ncc2C(=O)N(C)C)n1` (centres undefined), the cytotoxicity at 70.5 h is -3.67%. As to `COCCC(=O)N1C[C@@H](c2ccccc2F)[C@@]2(CCCC(=O)N2)C1`, the cytotoxicity at 70.5 h was -7.07%. For `Oc1cc(-c2ccsc2)nc(C2CCN(Cc3ccncc3)CC2)n1`, the cytotoxicity at 70.5 h is -3.71%.

For `CN1CCCC1c1cncc(C(=O)NCC2CC2)n1` (centres undefined), the cytotoxicity at 70.5 h was -6.82%. `CC(C)(C)OC(=O)N[C@@H]1C[C@@H](O)CN(C(=O)c2ccc(F)cc2)C[C@H]1O`: the cytotoxicity at 70.5 h was -2.5%. On to `CNC(=O)C1(CCCc2ccccn2)CN(Cc2nccn2C)C1`, for which the cytotoxicity at 70.5 h was -9.75%. With `Cn1ccnc1CN1CCC(CCCc2ccccn2)(C(N)=O)CC1` the figure was -13.4%; with `Cc1cccc(CN2CCCC[C@H]3CN(c4ncccn4)C[C@H]32)c1`, 5.5%. `O=S(=O)(c1cn[nH]c1)N1C[C@@H](O)[C@H](N2CCc3ccccc3C2)C1`: the cytotoxicity at 70.5 h is -7.48%. With `Cc1ncsc1CN1CCOC(C)(C(=O)N(C)C)C1` (centres undefined) the figure was 20%; with `CNc1cc(C2CCCN2C(=O)CCc2cnn(C)c2C)ccn1` (centres undefined), -8.49%. Turning to `CC(C)(C)CN1CCCC(c2nccnc2Nc2cnccn2)C1` (centres undefined), the cytotoxicity at 70.5 h is -12.3%. `c1cnc(CC2CCN(c3cnccn3)CC2)cn1`: the cytotoxicity at 70.5 h is -7.05%. `NC(=O)c1cnc(NC2CC2)nc1CCNC(=O)CC1CCCC1`: the cytotoxicity at 70.5 h was -14.3%. Turning to `CN1CCC(c2cccc(C(=O)N(C)C)n2)CC1`, the cytotoxicity at 70.5 h is -7.65%. As to `O=C(NC[C@H]1CC[C@H](c2ccnc3ncnn32)CC1)c1ccccn1`, the cytotoxicity at 70.5 h was -6.58%. The value for `N#Cc1cccc(CNc2ccc(F)cc2OCCO)c1` was -6.47%. Take `Cn1cc(C(=O)NCCc2csc(-c3ccccc3)n2)ccc1=O`: the cytotoxicity at 70.5 h is -2.1%. For `Cc1cc(OCC(N)=O)ccc1NC(=O)C(C)Cc1ccccc1F` (centres undefined), the cytotoxicity at 70.5 h was -2.1%.

Consider `Cc1ccc(C(=O)NS(=O)(=O)Cc2ccccc2)cc1S(C)(=O)=O`, for which the cytotoxicity at 70.5 h is -2.97%. Regarding `CS(=O)(=O)c1cc(NC(=O)COc2ccccc2F)cc(C(=O)O)c1`, the cytotoxicity at 70.5 h was -2.84%. In the case of `Cc1ccnc(N2CCCC(c3nncn3C3CC3)C2)n1` (centres undefined), the cytotoxicity at 70.5 h was -2.88%.

On to `Cc1cccn2cc(CC(=O)N(CCN(C)C)CC3CCCO3)nc12` (centres undefined), for which the cytotoxicity at 70.5 h was found to be 17.3%. For the compound `CC(c1ccncc1)N(C)S(C)(=O)=O` (centres undefined), the cytotoxicity at 70.5 h was -5.4%. With `CSCC(C)NS(=O)(=O)c1ccc(C)c(N(C)C)c1` (centres undefined) the figure was -4.35%; with `Cc1ccc(C(O)CN(C)Cc2cnn(C)c2)cc1C` (centres undefined), -1.99%. On to `CC(C)(C)c1ncc(C(=O)NCc2cccc(C(=O)N3CCCC3)c2)s1`, for which the cytotoxicity at 70.5 h is -1.76%.

`Cc1ccc(-c2nnc(CCC(=O)N3CCCC3c3ccc[nH]3)o2)cc1` (centres undefined): the cytotoxicity at 70.5 h is -2%.

With `COc1ccc(CNC(=O)Nc2ccc(S(=O)(=O)C(F)F)cc2)cc1`, the cytotoxicity at 70.5 h worked out at 8.9%. For `COc1ccc(Br)cc1NCC(=O)NC(C)(C#N)C1CC1` (centres undefined), the cytotoxicity at 70.5 h worked out at 2.31%.

Take `Cc1cccc(C(=O)N2CCCC2)c1NCC(=O)NC(C)(C#N)C1CC1` (centres undefined): the cytotoxicity at 70.5 h was 28.8%. With `Cc1cccc(C(=O)N2CCCC2)c1NCC(=O)NC1(C#N)CCCC1`, the cytotoxicity at 70.5 h is -4.19%.

`O=C(COc1ccc2c(c1)CCCC2=O)NCc1ccco1`: the cytotoxicity at 70.5 h was -4.86%. Take `CC(C)(Oc1ccc2c(c1)CCCC2=O)C(=O)NCc1ccco1`: the cytotoxicity at 70.5 h was -2.8%. Consider `CCCS(=O)(=O)C(C)C(=O)Nc1ccc2oc(C3CC3)nc2c1` (centres undefined), for which the cytotoxicity at 70.5 h is -2.1%. The value for `Cc1c(C(=O)NCC(F)(F)F)nnn1-c1ccccc1Cl` was -3.49%; that for `COc1cccc(C(C)N2CCN(S(C)(=O)=O)CC2)c1` (centres undefined) was 28.7%; that for `CCn1ccnc1CN1CCCN(C(=O)c2ccc(C#N)cc2)CC1` was 0.738%. `Cc1noc(OCc2csc(C)n2)n1`: the cytotoxicity at 70.5 h is -3.72%. The value for `CC(C)S(=O)(=O)C(C)C(=O)Nc1ccc2oc(C3CC3)nc2c1` (centres undefined) was -2.28%; that for `COc1ccncc1NC(=O)c1[nH]nc(C(C)C)c1Br` was -3.93%.

Take `O=C1NCCCCC1SCc1coc(-c2cccc(F)c2)n1` (centres undefined): the cytotoxicity at 70.5 h was -5.82%. On to `COc1ccc2nc(C3CC3)cc(C(=O)NCC(=O)N(C)C)c2c1`, for which the cytotoxicity at 70.5 h was -2.45%. `Cc1nc(C2CCN(S(=O)(=O)c3ccc4c(c3)CCC4)CC2)n[nH]1`: the cytotoxicity at 70.5 h is -2.6%.

With `Cn1ccc(CNC(=O)Nc2ccc(S(=O)(=O)C(F)F)cc2)c1`, the cytotoxicity at 70.5 h was -2.09%. As to `CC(=O)NC(Cc1c[nH]c2cc(F)ccc12)C(=O)Nc1nonc1C` (centres undefined), the cytotoxicity at 70.5 h came out at 22%. With `CC(C#N)CNC(=O)Nc1ccc(-c2cc[nH]n2)cc1` (centres undefined), the cytotoxicity at 70.5 h is -1.44%. For `COc1ccc2nc(C3CC3)cc(C(=O)NCCc3nnc[nH]3)c2c1`, the cytotoxicity at 70.5 h was -3.73%. For the compound `CC(C)c1cc(C(=O)N(c2ccc(F)cn2)C2CCOCC2)on1`, the cytotoxicity at 70.5 h was 1.54%. For the compound `CC(C#N)CNC(=O)Nc1ccc(-c2ccc[nH]2)cc1` (centres undefined), the cytotoxicity at 70.5 h is -0.22%. For `CS(=O)(=O)c1ccc(NCc2ccccc2)cn1`, the cytotoxicity at 70.5 h was -2.92%. With `CC(C)(Oc1ccc(F)cc1)C(=O)NCc1ccco1`, the cytotoxicity at 70.5 h was -2.11%. Regarding `CC(NC(=O)N1CCC2(C1)OCCO2)c1ccc(F)cc1Cl` (centres undefined), the cytotoxicity at 70.5 h came to 4.97%. The value for `Cc1nc(COc2nc(C(C)C)no2)cs1` was -5.35%; that for `O=C(c1cccc(O)c1)N1CCN(Cc2nnc(C3CCC3)o2)CC1` was 23.6%. `Cc1nc(C)n(CC2CCCCN2c2ccnc(-c3ccccc3)n2)n1` (centres undefined): the cytotoxicity at 70.5 h is 5.38%. On to `CN(C)CCN(C)S(=O)(=O)CC1CCOCC1`, for which the cytotoxicity at 70.5 h is -7.41%. Consider `CC(OCC1CC1)C(=O)NCc1cccc(CN2CCCC2=O)c1` (centres undefined), for which the cytotoxicity at 70.5 h amounted to 1.05%.

For `O=C(COC1CCCCC1)Nc1ccn(Cc2ccccn2)n1`, the cytotoxicity at 70.5 h is -5.54%. With `CC(C)(C)c1ccc2c(c1)CCN2C(=O)c1ccc(=O)[nH]n1` the figure was -5.53%; with `CC(C)(C)n1c(NC(=O)CNC(=O)NC2CC2)nc2ccccc21`, 1.24%. With `Cc1nc(-c2ccc(CO)cc2)cc(C2CCNCC2)n1` the figure was -2.27%; with `c1cc(CC2CCCNC2)nc(NCCc2cnccn2)c1` (centres undefined), -11.1%; with `CCc1nccn1-c1cncc(C2CCCN2)n1` (centres undefined), -8.79%. As for `COc1cccc(Nc2nc(-c3ccncc3)nc3c2CNCC3)c1`, the cytotoxicity at 70.5 h amounted to 24.2%. As for `Fc1cnc(N2C[C@H]3CCC[C@@]3(COc3ccccn3)C2)nc1`, the cytotoxicity at 70.5 h was -7.17%. For `c1cncc(CO[C@H]2CO[C@@]3(CCN(Cc4ccoc4)C3)C2)c1`, the cytotoxicity at 70.5 h was -20.1%. As for `CO[C@H]1CCN(Cc2cnn(C)c2)[C@@H]2CN(Cc3cccnc3)C[C@H]12`, the cytotoxicity at 70.5 h was -25.8%.

Take `OCCN(Cc1ccncc1)CC1(c2ccc(Cl)cc2)CC1`: the cytotoxicity at 70.5 h is -4.99%. `Fc1ccc([C@@H]2COC[C@H]2NCc2cccc(F)c2)cc1`: the cytotoxicity at 70.5 h is -3.65%.
